Data set [1] concerns rat liver Microsomes. The data set can be described thus: Magnetometer detection of substrate metabolism by rat liver microsomes. As to conditions: for Magnetometer chart response to substrate, RLM + NADPH / Magnetometer chart response to substrate, RLM: rat liver microsomes 1 mg protein/ml; for Magnetometer chart response to substrate, RLM + NADPH: NADPH present; for Magnetometer chart response to substrate, RLM: no NADPH stated. (Liver microsomes are vesicles of endoplasmic reticulum, rich in cytochrome P450 enzymes.)

Data set [2] concerns pig liver chromatin. The data set can be described thus: Magnetometer detection of substrate metabolism by pig liver chromatin.
The subject of data set [3] is pig liver nuclei. The data set can be described thus: Magnetometer detection of substrate response in pig liver nuclei. Type of data set: in vitro ADME. Conditions: pig liver nuclei 1 mg protein/ml, without NADPH.

“Also recorded” adds a separate entry of the source.

Turning to `N[C@H](CO)Cc1c[nH]cn1` [histidinol], the “Metabolized by rat liver Microsomes” value in data set [1] (Non-NADPH-dependent) is “+”. For the same compound, in data set [2] (Non-NADPH-dependent), the “Metabolized by pig liver chromatin” value is on record as “+”.

Regarding `C[C@]12CC[C@H]3[C@@H](CCC4=CC(=O)CC[C@@]43C)[C@@H]1CC[C@@H]2O` [testosterone], the “Metabolized by rat liver Microsomes” value in data set [1] (NADPH-dependent) is “−”. Moreover, the “Metabolized by pig liver chromatin” value in data set [2] (NADPH-dependent) is “+”. In data set [2] (chromatin from pig liver nuclei, NADPH present), the “Magnetometer chart response to substrate, CHROM in presence of NADPH” value is reported as “CHROM. Response to TEST in presence of NADPH”.

Turning to `NCCCCN` [putrescine], the “Metabolized by rat liver Microsomes” value in data set [1] (NADPH-dependent) was “+”. Further, the “Magnetometer chart response to substrate, RLM + NADPH” value in data set [1] is recorded as “Increased slope”; in data set [1] (listed as PU), “PU (10) NADPH (10) response seen at end of record; also recorded: Response to PU”. Further, in data set [2] (NADPH-dependent), the “Metabolized by pig liver chromatin” value was “+”. In data set [3], the “Magnetometer chart response to substrate, PLN” value was “PLN. No response to PUTR until NADPH added”.

Turning to `Nc1ncnc2c1ncn2[C@@H]1O[C@H](CO)[C@@H](O)[C@H]1O` [adenosine], the “Metabolized by rat liver Microsomes” value in data set [1] (Non-NADPH-dependent) is “+”. Further, in data set [1], the “Magnetometer chart response to substrate, RLM” value is reported as “No further change in slope”.

For `CNCCC(Oc1ccc(C(F)(F)F)cc1)c1ccccc1` (stereo not shown) [fluoxetine], the “Metabolized by rat liver Microsomes” value in data set [1] (NADPH-dependent) is on record as “+”.

`C[C@]12CCC(=O)C=C1CC[C@@H]1[C@@H]2[C@@H](O)C[C@@]2(C)[C@H]1CC[C@]2(O)C(=O)CO` [cortisol]: the “Metabolized by rat liver Microsomes” value in data set [1] (NADPH-dependent) is “+”. Besides, the “Metabolized by pig liver chromatin” value in data set [2] (NADPH-dependent) is reported as “−”.

On to `C[C@]12CC[C@@H]3c4ccc(O)cc4CC[C@H]3[C@@H]1CC[C@@H]2O` [estridiol, β-estradiol], for which the “Metabolized by pig liver chromatin” value in data set [2] (NADPH-dependent) is “−”.

As to `Cc1c(N(C)C)c(=O)n(-c2ccccc2)n1C` [aminopyrine], in data set [1] (NADPH-dependent), the “Metabolized by rat liver Microsomes” value was “+”. The “Metabolized by pig liver chromatin” value in data set [2] (NADPH-dependent) is listed as “−”.

Consider `N[C@@H](Cc1c[nH]cn1)C(=O)O` [histidine], for which, in data set [1] (Non-NADPH-dependent), the “Metabolized by rat liver Microsomes” value was “+”. Also, in data set [1], the “Magnetometer chart response to substrate, RLM + NADPH” value is “RLM + NADPH. Two response to HD, short latency in both” and the “Magnetometer chart response to substrate, RLM” value was “Enhanced slope”. Besides, the “Metabolized by pig liver chromatin” value in data set [2] (Non-NADPH-dependent) was “++”. Moreover, in data set [2] (chromatin from pig liver nuclei 1 mg protein/ml, without NADPH, listed as HD), the “Magnetometer chart response to substrate, CHROM” value is on record as “PBT (50) B 10 CHROM Response to HD; also recorded: PGT 100 CHROM (700) B. Response to HD”. The “Magnetometer chart response to substrate, PLN” value in data set [3] is listed as “PLN. Response to HD”.

On to `CN(C)CCC=C1c2ccccc2CCc2ccccc21` [amitryptyline], for which the “Metabolized by rat liver Microsomes” value in data set [1] (NADPH-dependent) is given as “+”. Moreover, the “Metabolized by pig liver chromatin” value in data set [2] (NADPH-dependent) was “+”.

On to `CC(=O)[C@H]1CC[C@H]2[C@@H]3CCC4=CC(=O)CC[C@]4(C)[C@H]3CC[C@]12C` [progresterone, progesterone], for which, in data set [1] (NADPH-dependent), the “Metabolized by rat liver Microsomes” value is on record as “+”.

In the case of `NCCc1c[nH]cn1` [histamine], in data set [1] (Non-NADPH-dependent), the “Metabolized by rat liver Microsomes” value is reported as “+”. Further, the “Metabolized by pig liver chromatin” value in data set [2] (Non-NADPH-dependent) is reported as “+”.

`Nc1ccccc1` [aniline]: the “Metabolized by rat liver Microsomes” value in data set [1] (NADPH-dependent) is “+”. Besides, the “Metabolized by pig liver chromatin” value in data set [2] (NADPH-dependent) was “−”.

Source of the values: patent US7477053B2, “Detection of electromagnetic fields” (priority 1994, dated 2009).
